Source: patent US20230217925A1, “FENCLORIM SEED TREATMENT AS A BIOSTIMULANT” (THE BOARD TRUSTEES OF THE UNIVERSITY OF ARKANSAS, priority 2022, published 2023)

Tests used:
Format in all cases: in vivo
[1] = system: four rice cultivars (Diamond, Titan, RT7521FP, and RT7321FP); assay: Fenclorim dose-response study, results over all four cultivars; details: for Increase over control % (groundcover): averaged over all four cultivars, 45 days after emergence
Procedure: (§1) On Apr. 17, 2021, an experiment was initiated to identify the best rate at which to apply fenclorim as a rice seed treatment. The experiment was conducted using four rice cultivars (Diamond, Titan, RT7521FP, and RT7321FP) and 5 rates of the fenclorim (0, 0.625, 1.25, 2.5, and 5 g/kg seed). Seeds were treated using the aforementioned methods with all seeds having the same base seed treatment. […] At 2.5 g fenclorim per kg of seed, there was a 22% increase (averaged across cultivars) in groundcover compared to the no fenclorim treatment at 45 days after emergence. In this study, rice plant heights and shoot numbers were measured 30 days after emergence. The heights of five random plants were measured per plot and shoot numbers were measured in two 0.5 m sections of row.

[2] = system: sixteen of the most common rice cultivars planted in the state of Arkansas; assay: Cultivar screening, fenclorim seed treatment, field plots, aerial image groundcover; details: 2.5 g fenclorim per kg of seed vs 0; 45 days after emergence; averaged across all cultivars
Procedure: (§2) An experiment was conducted to screen for the effects of a fenclorim seed treatment across sixteen of the most common rice cultivars planted in the state of Arkansas. The cultivars screened in the study included ten long-grain inbreds, three medium-grain inbreds, and three long-grain hybrids: ‘Diamond’, ‘Jewel’, ‘DG363L’, ‘CLL 15’, ‘CLL 16’, ‘CLL 17’, ‘PVL02’, ‘PVL03’, ‘RTV7231MA’, ‘CLJ 01’, ‘Jupiter’, ‘Titan’, ‘Lynx’, ‘RT753XP’, ‘RT7321FP’, and ‘RT7521FP’. All seeds were treated with a base treatment comprising a standard rice insecticide (i.e., NipsIt®) and fungicide (i.e., a combination of metalaxyl, fludioxonil, carboxin, and thiram) using a commercial seed treater. Additionally, each seed was treated with 0 or 2.5 g fenclorim per kg of seed. Seed was planted on Apr. 19, 2021, utilizing nine-row plots (5.2 m by 3 m). Aerial images were captured using a DJI Mavic Air 2 45 days after emergence, and images were analyzed using Turf Analyzer.

Diamond rice = Diamond rice evaluation in heavy clay soil, drone image groundcover; details: 2.5 g fenclorim per kg of seed vs 0, 45 days after emergence
Procedure: as §2
An experiment was conducted to test whether fenclorim seed treatment would influence rice growth in a heavy clay soil. Diamond rice was planted on Apr. 22, 2021, using the same practices as the previous experiment, including a treatment with 0 or 2.5 g fenclorim per kg of seed.

rice cultivar RT7521FP = assay: Fenclorim dose-response study, seed treatment (groundcover, shoot numbers); details: for Shoots (%), percentage of shoot numbers produced by control plants: 30 days after emergence; for Groundcover (%): 45 days after emergence
Procedure: as §1

rice cultivar Titan = assay: as above; details: for Shoots (%), percentage of shoot numbers produced by control plants: 30 days after emergence; for Groundcover (%): 45 days after emergence
Procedure: as §1

rice cultivar RT7321FP = assay: as above; details: for Shoots (%), percentage of shoot numbers produced by control plants: 30 days after emergence; for Groundcover (%): 45 days after emergence
Procedure: as §1

rice cultivar Diamond = assay: as above; details: for Shoots (%), percentage of shoot numbers produced by control plants: 30 days after emergence; for Groundcover (%): 45 days after emergence
Procedure: as §1

[3] = system: rice seeds of the cultivar Diamond; assay: Greenhouse biostimulant experiment; details: 2.5 g/kg of seed vs 0, 30 days after emergence, silt loam soil
Procedure: A greenhouse biostimulant experiment was performed in 2 experimental runs. Fenclorim was applied to rice seed at 0 or 2.5 g/kg of seed. Five rice seeds of the cultivar Diamond were planted in silt loam soil in 4″ diameter pots 0.5″ apart. At least 9 replications were performed per run. At 14 days after emergence, emerged rice was counted and thinned to 3 plants per pot. Data were collected 30 days after emergence. The leaf area of the rice plants in each pot was determined. Groundcover was determined based on the number of green leaf pixels from an overhead image. Shoot (aboveground) and root (belowground) biomass were determined, and total biomass was determined by adding the mass of the roots and shoots.

Clc1cc(Cl)nc(-c2ccccc2)n1 [fenclorim, 4,6-dichloro-2-phenylpyrimidine]
rice plant heights ([1]; 0.625-5 g/kg seed vs 0, 30 days after emergence, five random plants per plot): not influenced
shoot number, effect as the seed treatment rate increased ([1]; 0.625-5 g/kg seed vs 0, 30 days after emergence, two 0.5 m sections of row): an increase in shoot number was observed
Increase over control % (groundcover) ([1]; 0.625 g/kg seed): 12%
Increase over control % (groundcover) ([1]; 1.25 g/kg seed): 18%
Increase over control % (groundcover) ([1]; 2.5 g/kg seed): 22%
Increase over control % (groundcover) ([1]; 5.0 g/kg seed): 23%
increase in groundcover [2]: 7%
increase in groundcover (Diamond rice): 4%
Shoots (%), percentage of shoot numbers produced by control plants (rice cultivar RT7521FP; 0.625 g/kg seed): 110.7%
Groundcover (%) (rice cultivar RT7521FP; 0.625 g/kg seed): 51.8%
Shoots (%), percentage of shoot numbers produced by control plants (rice cultivar RT7521FP; 1.25 g/kg seed): 112.4%
Groundcover (%) (rice cultivar RT7521FP; 1.25 g/kg seed): 52.5%
Shoots (%), percentage of shoot numbers produced by control plants (rice cultivar RT7521FP; 2.5 g/kg seed): 108.8%
Groundcover (%) (rice cultivar RT7521FP; 2.5 g/kg seed): 51.2%
Shoots (%), percentage of shoot numbers produced by control plants (rice cultivar RT7521FP; 5.0 g/kg seed): 111.9%
Groundcover (%) (rice cultivar RT7521FP; 5.0 g/kg seed): 55.9%
Shoots (%), percentage of shoot numbers produced by control plants (rice cultivar Titan; 0.625 g/kg seed): 111.1%
Groundcover (%) (rice cultivar Titan; 0.625 g/kg seed): 49.3%
Shoots (%), percentage of shoot numbers produced by control plants (rice cultivar Titan; 1.25 g/kg seed): 110.5%
Groundcover (%) (rice cultivar Titan; 1.25 g/kg seed): 47.3%
Shoots (%), percentage of shoot numbers produced by control plants (rice cultivar Titan; 2.5 g/kg seed): 105.3%
Groundcover (%) (rice cultivar Titan; 2.5 g/kg seed): 48.1%
Shoots (%), percentage of shoot numbers produced by control plants (rice cultivar Titan; 5.0 g/kg seed): 102.4%
Groundcover (%) (rice cultivar Titan; 5.0 g/kg seed): 50.6%
Shoots (%), percentage of shoot numbers produced by control plants (rice cultivar RT7321FP; 0.625 g/kg seed): 115.2%
Groundcover (%) (rice cultivar RT7321FP; 0.625 g/kg seed): 41.2%
Shoots (%), percentage of shoot numbers produced by control plants (rice cultivar RT7321FP; 1.25 g/kg seed): 110.3%
Groundcover (%) (rice cultivar RT7321FP; 1.25 g/kg seed): 46.0%
Shoots (%), percentage of shoot numbers produced by control plants (rice cultivar RT7321FP; 2.5 g/kg seed): 108.4%
Groundcover (%) (rice cultivar RT7321FP; 2.5 g/kg seed): 53.9%
Shoots (%), percentage of shoot numbers produced by control plants (rice cultivar RT7321FP; 5.0 g/kg seed): 112.3%
Groundcover (%) (rice cultivar RT7321FP; 5.0 g/kg seed): 50.3%
Shoots (%), percentage of shoot numbers produced by control plants (rice cultivar Diamond; 0.625 g/kg seed): 98.6%
Groundcover (%) (rice cultivar Diamond; 0.625 g/kg seed): 47.3%
Shoots (%), percentage of shoot numbers produced by control plants (rice cultivar Diamond; 1.25 g/kg seed): 111.1%
Groundcover (%) (rice cultivar Diamond; 1.25 g/kg seed): 54.6%
Shoots (%), percentage of shoot numbers produced by control plants (rice cultivar Diamond; 2.5 g/kg seed): 106.9%
Groundcover (%) (rice cultivar Diamond; 2.5 g/kg seed): 54.2%
Shoots (%), percentage of shoot numbers produced by control plants (rice cultivar Diamond; 5.0 g/kg seed): 100%
Groundcover (%) (rice cultivar Diamond; 5.0 g/kg seed): 52.2%
increase in aboveground biomass [3]: 14%
increase in belowground biomass [3]: 63%
increase in groundcover [3]: 15%
increase in leaf area [3]: 23%
increase in total biomass [3]: 40%
